# Source: patent US20240408159A1, “PHYTOENE-CONTAINING OLEORESIN AND COMPOSITION” (LYCORED LTD., priority 2021, published 2024)
# How the values were obtained:
# IL-1a = assay: DPM-induced IL-1a production in EpiDerm 3D reconstructed skin model; format: cell-based, human; conditions: 48 hours, FIG. 6
# Description: The EpiDerm reconstructed skin system was obtained from the supplier MatTek (catalogue number EPI-200), and the tissue was handled according to the manufacturer's instructions. Briefly, upon delivery, the tissue was removed from its agar medium, washed and then left to recover overnight at 37 C, in a 5% CO2 environment. Then, the tissue was treated with topically-applied DPM (100 μg/ml in PBS, 10 μl/sample) in the presence or absence of the phytoene oleoresin diluted in jojoba wax at concentrations of 0.1, 1 and 2.5%, to a final volume of 30 μl. The following control groups were also set up: naïve tissue (untreated control), vehicle (jojoba wax), DPM-stimulated tissue and N-acetyl cysteine (NAC; positive control). Following addition of the test substances and controls, the reconstructed skin cultures were incubated for a further 48 hours at 37 C, in a 5% CO2 environment. At the end of the treatment period, the medium was collected from the tissue control implants and centrifuged at 250×g for 5 minutes, in order to remove particulate matter. […] IL-1a and IL-6 levels in the thawed medium were determined using commercial ELISA kits (ELISA Max Deluxe Set Human IL-1a catalogue number B265424; ELISA Max Deluxe Set Human IL-6 catalogue number B2852558; both supplied by Enco), according to the manufacturer's instructions.
# IL-8 = assay: Inhibition of UVB-induced IL-8 production in cultured HaCaT keratinocytes; format: cell-based, human; conditions: UVB lamp, test at final phytoene concentration 56 ppm, FIG. 5
# Description: Spontaneously transformed adult human keratinocytes of the HaCaT line were grown, maintained, plated and treated with control and test substances as described in Example 1, above. The cultured cells were irradiated using a UVB lamp in order to generate an inflammatory response in the cultured cells. The control substances used in this study were: • Vehicle control (“Control” in FIG. 5) • UVB exposure only (“Untreated”) • 4-Aminobenzoic acid (“PABA”; positive control) The test substance used was a dilution of the composition of the present invention (i.e., containing non-GMO, solvent free phytoene and jojoba oil), yielding a final phytoene concentration of 56 ppm. The IL-8 concentration of the culture cell supernatants was measured as described in Example 1, above.
Structure (SMILES),reduction in IL-1a production (positive control) (IL-1a),reduction in UVB-stimulated IL-8 production (IL-8)
"CC(=O)N[C@@H](CS)C(=O)O [NAC, N-acetyl cysteine]",reduction,
"Nc1ccc(C(=O)O)cc1 [PABA, 4-Aminobenzoic acid]",,inhibition
